Measured values from patent publication US11147805B2, “Cannabinoid receptor agonists and serine hydrolase enzyme inhibitor based anxiolytic therapeutic product” (Medipure Pharmaceuticals Inc., priority 2019, dated 2021).

Key:
Swiss albino mice [1] = assay: Dose-response study: locomotor activity in the open field; format: in vivo; details: 7 days repeated, tested 8th day, tracked 60 min, vs vehicle
Protocol: The effect of CBD, KML29, and JZL184 on locomotor activity in the open field experiment was evaluated using Swiss albino mice.
A total of 88 male Swiss albino mice (˜30-45 g; 7-9 weeks old) were selected and body weights were recorded. Animals were administered respective treatments (n=8) as per the group allocation repeatedly for 7 days. On the day of testing (8th day), animals were brought to the laboratory 1 h prior to acclimatize to the laboratory conditions. Mice were habituated to the arenas for a period of 30 min. Respective treatments were intraperitoneally administered (vehicle (10 mL/kg) or Diazepam (1 mg/kg) or CBD (1, 10 and 100 mg/kg) or KML29 (3, 10 and 30 mg/kg) or JZL184 (3, 10 and 30 mg/kg)) immediately post habituation. After treatment animals were placed in the open field and distance traveled by mice was tracked for 60 min. Data obtained was analyzed by Student's ‘t’-test or Two-way repeated measures ANOVA followed by Bonferroni's posthoc tests by using the Graph pad prism software package (Version 7.0) and a p-value below 0.05 was considered as significant.

healthy volunteers = details: chronic administration, even large acute doses of 700 mg/day; cited from earlier work
human subjects = human subjects submitted to SPST; cited from earlier work
Swiss albino mice [2] = assay: Anxiolytic effects of formulation: locomotor activity in open field, combinations vs diazepam; format: in vivo; details: 1 mg/kg, i.p.; tested 8th day, tracked 60 min; vs vehicle
Protocol: The effect of CBD, KML29, and JZL184 on locomotor activity in open field was evaluated using Swiss albino mice and compared with diazepam.
A total of 48 male Swiss albino mice (˜30-45 g; 7-9 weeks old) were selected and body weights were recorded. Animals were brought to the laboratory 1 h prior to acclimatize to the laboratory conditions. The open field is a black colored arena of 51×51×51 cm enclosed by black plastic walls of same dimensions. Animals were given respective intraperitoneal treatments as per the group allocation (n=8) repeatedly for 7 days. On the day of testing (8th day), mice were habituated to the arenas for a period of 30 min. […] Data obtained was analyzed by Student's ‘t’-test or Two-way repeated measures ANOVA followed by Bonferroni's posthoc tests by using the GraphPad prism software package (Version 7.02) and p-value below 0.05 was considered as significant.
Preparation of formulations: Diazepam was dissolved with sufficient volume of 5% pharmasolve and 95% of 30% w/v captisol to get the concentration of 0.10 mg/mL and was intended for intraperitoneal administration of 1 mg/kg dose at 10 mL/kg dose volume. CBD was dissolved in a calculated volume of DMSO to get the concentration of 20 mg/mL (Stock solution). […] KML29 was dissolved in a calculated volume of DMSO to get the concentration of 50 mg/mL (Stock solution). […]

C=C(C)[C@@H]1CCC(C)=C[C@H]1c1c(O)cc(CCCCC)cc1O [CBD, cannabidiol]
locomotion (distance traveled in open field) (Swiss albino mice [1]; 100 mg/kg, i.p.): significantly decreased the locomotion
toxicity or serious side effects (healthy volunteers): No signs of toxicity or serious side effects
anxiolytic effect (human subjects): anxiolytic effects

O=C(Oc1ccc([N+](=O)[O-])cc1)N1CCC(C(O)(c2ccc3c(c2)OCO3)c2ccc3c(c2)OCO3)CC1 [JZL184, 4-nitrophenyl-4-[bis(1,3-benzodioxol-5yl)(hydroxy)methyl]piperidine-1-carboxylate]
locomotion (distance traveled in open field) (Swiss albino mice [1]; 3, 10 and 30 mg/kg i.p.): decreased the locomotion in a dose-dependent manner but the effect did not reach statistical significance

CN1C(=O)CN=C(c2ccccc2)c2cc(Cl)ccc21 [Diazepam, diazepam]
locomotion (distance traveled in open field) (Swiss albino mice [1]; 1 mg/kg, i.p.): significantly decreased the locomotion
locomotion (distance traveled in open field) (Swiss albino mice [2]): significantly decreased the locomotion

O=C(N1CCC(=C2c3ccc(Cl)cc3CCc3cccnc32)CC1)n1cncn1 [KML29, [4-(8-Chloro-5,6-dihydro-11H-benzo[5,6]cyclohepta[1,2-b]pyridin-11-ylidene)-1-piperidinyl](1H-1,2,4-triazol-1-yl)methanone]
locomotion (distance traveled in open field) (Swiss albino mice [1]; 30 mg/kg, i.p.): decreased the locomotion and attained significance
